According to US6440991B1, “Ethers of 7-desmethlrapamycin” (Wyeth, priority 2000, dated 2002):
Values after ≈ are worked out from the molar mass of the structure shown.

Tests used:
Format in all cases: cell-based
[1] = system: Candida parapsilosis; experiment: Antifungal activity, microtiter broth dilution MIC; conditions: RPMI 1640, 35° C., 24-48 hours
Experimental: (§1) The antifungal activity for the ethers of 7-desmethylrapamycin of this invention was confirmed in a standard pharmacological test procedure which measured the ability of the compound being evaluated to inhibit fungal growth. 42-O-(2-Hydroxy)ethyl 7-desmethylrapamycin […] (Compound I) was evaluated as a representative compound of this invention. The procedure used and results obtained are briefly described below. A 96 U-bottom microtiter plate was filled (50 μl/well) with RPMI 1640. The compounds to be evaluated were placed in appropriate wells, and serial diluted in successive wells to provide 11 dilutions. The concentrations ranged from 64 through 0.06 μug/ml. An adjusted inoculum of fungi (50 μl) was added to each well and the plates were incubated at 35° C. for 24-48 hours. […] Nystatin and amphotericin B were used for the purpose of comparison.

[2] = system: Candida pseudotropicalis; experiment: Antifungal activity, microtiter broth dilution MIC; conditions: Candida pseudotropicalis strain ATCC 28838; RPMI 1640, 35° C., 24-48 hours
Experimental: as §1

[3] = system: Candida krussii; experiment: Antifungal activity, microtiter broth dilution MIC; conditions: Candida krussii strain 94-2; RPMI 1640, 35° C., 24-48 hours
Experimental: as §1

[4] = system: Aspergillus niger; experiment: Antifungal activity, microtiter broth dilution MIC; conditions: RPMI 1640, 35° C., 24-48 hours
Experimental: as §1

[5] = system: Candida rugosa; experiment: Antifungal activity, microtiter broth dilution MIC; conditions: Candida rugosa strain 94-10; RPMI 1640, 35° C., 24-48 hours
Experimental: as §1

[6] = system: Candida tropicalis; experiment: Antifungal activity, microtiter broth dilution MIC; conditions: RPMI 1640, 35° C., 24-48 hours
Experimental: as §1

[7] = system: Candida albicans; experiment: Antifungal activity, microtiter broth dilution MIC; conditions: RPMI 1640, 35° C., 24-48 hours
Experimental: as §1

[8] = system: Aspergillus fumigatus; experiment: Antifungal activity, microtiter broth dilution MIC; conditions: Aspergillus fumigatus strain ATCC 26933; RPMI 1640, 35° C., 24-48 hours
Experimental: as §1

[9] = system: Candida lusitaniae; experiment: Antifungal activity, microtiter broth dilution MIC; conditions: Candida lusitaniae strain 94-3; RPMI 1640, 35° C., 24-48 hours
Experimental: as §1

[10] = system: U87MG human glioblastoma cells; experiment: Inhibition of U87MG human glioblastoma cell growth (3H-thymidine incorporation); conditions: 48 hours incubation with compound
Experimental: The antineoplastic activity of the compounds of this invention were confirmed in a standard pharmacological test procedure which measures the inhibition of U87MG human glioblastoma cell growth (as a function of ^3H-thymidine incorporation), using 42-O-(2-hydroxy)ethyl 7-desmethylrapamycin (Compound I) as a representative compound of this invention. The following briefly describes the procedure used and results obtained. U87MG human glioblastoma cells (ATCC # HTB-14; available from the American Type Culture Collection; 10801 University Boulevard; Manassas, Va. 20110;), were grown in the following media.
Growth Medium: BRL Minimum Essential Medium with Earle Salts (500 mL)
+5 mL BRL MEM Non-Essential Amino Acids (10 mM)
+5 mL BRL Penicillin-Streptomycin (1 0000u/mL,1 0000 μg/mL)
+5 mL BRL Na Pyruvate Solution (100 mM)
+5 mL BRL L-Glutamine 200 mM
+50 mL BRL Fetal Bovine Serum (Qualified)
1. Cells were trypsinized and plated at a concentration of 10^4 cells/well in a final volume of 200 μL growth medium in 96-well flat bottom plates and allowed to adhere for 24 hours at 37° C.
2. The media was removed by aspiration with care to not disturb the cell monolayer. 200 μL of fresh growth media was added per well, allowing enough wells for samples to be run in triplicate. […]
4. […] Mats were counted in a Wallac Betaplate counter.

[11] = Candida parapsilosis strain 94-8
[12] = Candida parapsilosis strain 94-9
[13] = Candida parapsilosis strain ATCC 90018
[14] = Candida tropicalis strain 94-13
[15] = Candida tropicalis strain 94-14
[16] = Candida albicans strain ATCC 90028

Row | Compound | ANTIFUNGAL ACTIVITY (MIC) [1, 11] | ANTIFUNGAL ACTIVITY (MIC) [1, 12] [µg/mL] | ANTIFUNGAL ACTIVITY (MIC) [1, 13] | ANTIFUNGAL ACTIVITY (MIC) [2] | ANTIFUNGAL ACTIVITY (MIC) [3] [µg/mL] | ANTIFUNGAL ACTIVITY (MIC) ([4]; Aspergillus niger strain S399) [µg/mL] | ANTIFUNGAL ACTIVITY (MIC) ([4]; Aspergillus niger strain S430) [µg/mL] | ANTIFUNGAL ACTIVITY (MIC) [5] [µg/mL] | ANTIFUNGAL ACTIVITY (MIC) [6, 14] | ANTIFUNGAL ACTIVITY (MIC) [6, 15] | ANTIFUNGAL ACTIVITY (MIC) ([7]; Candida albicans strain 1063) | ANTIFUNGAL ACTIVITY (MIC) ([7]; Candida albicans strain 1117) [µg/mL] | ANTIFUNGAL ACTIVITY (MIC) [7, 16] [µg/mL] | ANTIFUNGAL ACTIVITY (MIC) [8] [µg/mL] | ANTIFUNGAL ACTIVITY (MIC) [9] | IC50 [10] [µg/mL]
1 | C[C@@H]1[C@H](O)[C@@H](C)/C=C/C=C/C=C/C=C/C=C/C=C/C=C/[C@H](O[C@@H]2O[C@H](C)[C@@H](O)[C@H](N)[C@@H]2O)C[C@@H]2O[C@](O)(C[C@@H](O)C[C@@H](O)[C@H](O)CC[C@@H](O)C[C@@H](O)CC(=O)O[C@H]1C)C[C@H](O)[C@H]2C(=O)O [Amphotericin B, amphotericin B] | ≦0.06 μg/mL | 0.12 | ≦0.06 μg/mL | ≦0.06 μg/mL | 0.12 | 0.50 | 0.25 | 0.25 | ≦0.06 μg/mL | ≦0.06 μg/mL | ≦0.06 μg/mL | 0.12 | 0.12 | 0.25 | ≦0.06 μg/mL | 
2 | CO[C@@H]1C[C@H](C[C@@H](C)[C@@H]2CC(=O)[C@H](C)/C=C(\C)[C@@H](O)[C@@H](OC)C(=O)[C@H](C)C[C@H](C)/C=C/C=C/C=C(\C)[C@@H](O)C[C@@H]3CC[C@@H](C)[C@@](O)(O3)C(=O)C(=O)N3CCCC[C@H]3C(=O)O2)CC[C@H]1OCCO [Compound I, 42-O-(2-Hydroxy)ethyl 7-desmethyirapamycin] | 2 µg/mL | 2 | 2 µg/mL | 2 µg/mL | 0.5 | 64 | 64 | 1 | 0.5 µg/mL | 0.5 µg/mL | 1 µg/mL | 2 | 2 | 64 | 1 µg/mL | 0.0035 (≈ 3.71 nM)
3 | C[C@@H]1[C@H](O)[C@@H](C)/C=C/C=C/CC/C=C/C=C/C=C/C=C/C(O[C@H]2O[C@H](C)[C@@H](O)[C@H](N)[C@@H]2O)CC2O[C@](O)(CC(O)C(O)CCC(O)CC(O)CC(O)CC(=O)O[C@H]1C)CC(O)C2C(=O)O (stereo partly shown) [Nystatin] | 2 µg/mL | 1 | 2 µg/mL | 1 µg/mL | 1 | 2 | 1 | 1 | 1 µg/mL | 1 µg/mL | 1 µg/mL | 1 | 1 | 2 | 1 µg/mL | 
